Converted amounts (≈) assume the structure as drawn.
Experiments:
Streptococcus pneumoniae = assay: In vitro antibacterial activity against Streptococcus pneumoniae; format: functional
Enterococcus faecalis = assay: In vitro antibacterial activity against Enterococcus faecalis; format: functional
Staphylococcus aureus [1] = assay: In vitro antibacterial activity against Staphylococcus aureus; format: functional
Staphylococcus aureus [2] = assay: In vivo efficacy;(sc) tested for protection against staphylococcus infections in mice; format: functional; conditions: read-out: PD50
[3] = Aqueous solubility at neutral pH; format: physicochemical

solubility [3] [µg/mL] | SMILES | MIC (Streptococcus pneumoniae) [µg/mL] | MIC (Enterococcus faecalis) [µg/mL] | MIC (Staphylococcus aureus [1]) [µg/mL] | ED50 (Staphylococcus aureus [2]) [mg/kg]
– | C=C(NC(=O)c1csc(-c2nc3c(cc2OCCCS(=O)(=O)O)-c2nc(cs2)C(=O)N[C@@H]([C@@H](C)O)C(=O)N/C(=C(\C)OC)c2nc(cs2)C(=O)N[C@@H]2c4nc(cs4)C(=O)N[C@@H](COC(=O)c4c5c6c(cccc6n4O)COC(=O)[C@@H](O[C@H]4C[C@](C)(O)[C@H](N(C)C)[C@H](C)O4)[C@H]2OC5)c2nc-3cs2)n1)C(N)=O | 0.25 (≈ 0.16 µM) | 32 (≈ 20.5 µM) | 2 (≈ 1.28 µM) | > 10
– | C=C(NC(=O)c1csc(-c2nc3c(cc2O)-c2nc(cs2)C(=O)N[C@@H]([C@@H](C)O)C(=O)N/C(=C(\C)OC)c2nc(cs2)C(=O)N[C@@H]2c4nc(cs4)C(=O)N[C@@H](COC(=O)c4c5c6c(cccc6n4OCP(=O)(OCC)OCC)COC(=O)[C@@H](O[C@H]4C[C@](C)(O)[C@H](N(C)C)[C@H](C)O4)[C@H]2OC5)c2nc-3cs2)n1)C(N)=O | 0.001 (≈ 0.00063 µM) | 0.03 (≈ 0.0189 µM) | 0.015 (≈ 0.00945 µM) | 1.6
– | C=CCOc1cc2c(nc1-c1nc(C(=O)NC(=C)C(N)=O)cs1)-c1csc(n1)[C@@H]1COC(=O)c3c4c5c(cccc5n3OCC=C)COC(=O)[C@@H](O[C@H]3C[C@](C)(O)[C@H](N(C)C)[C@H](C)O3)[C@@H](OC4)[C@H](NC(=O)c3csc(n3)/C(=C(/C)OC)NC(=O)[C@H]([C@@H](C)O)NC(=O)c3csc-2n3)c2nc(cs2)C(=O)N1 | 0.0005 (≈ 0.000329 µM) | 0.25 (≈ 0.165 µM) | 0.06 (≈ 0.0395 µM) | > 10
– | C=C(NC(=O)c1csc(-c2nc3c(cc2O)-c2nc(cs2)C(=O)N[C@@H]([C@@H](C)O)C(=O)N/C(=C(\C)OC)c2nc(cs2)C(=O)N[C@@H]2c4nc(cs4)C(=O)N[C@@H](COC(=O)c4c5c6c(cccc6n4OCCCOC4O[C@H](CO)[C@@H](O)[C@H](O)[C@H]4O)COC(=O)[C@@H](O[C@H]4C[C@](C)(O)[C@H](N(C)C)[C@H](C)O4)[C@H]2OC5)c2nc-3cs2)n1)C(N)=O (stereo partly specified) | 0.06 (≈ 0.0362 µM) | > 128 | 16 (≈ 9.65 µM) | > 10
– | C=C(NC(=O)c1csc(-c2nc3c(cc2O)-c2nc(cs2)C(=O)N[C@@H]([C@@H](C)O)C(=O)N/C(=C(\C)OC)c2nc(cs2)C(=O)N[C@@H]2c4nc(cs4)C(=O)N[C@@H](COC(=O)c4c5c6c(cccc6n4OCCC[N+](C)(C)C)COC(=O)[C@@H](O[C@H]4C[C@](C)(O)[C@H](N(C)C)[C@H](C)O4)[C@H]2OC5)c2nc-3cs2)n1)C(N)=O | 0.5 | 2 | > 128 | > 10
– | C=C(NC(=O)c1csc(-c2nc3c(cc2OCCN2CCOCC2)-c2nc(cs2)C(=O)N[C@@H]([C@@H](C)O)C(=O)N/C(=C(\C)OC)c2nc(cs2)C(=O)N[C@@H]2c4nc(cs4)C(=O)N[C@@H](COC(=O)c4c5c6c(cccc6n4OCCN4CCOCC4)COC(=O)[C@@H](O[C@H]4C[C@](C)(O)[C@H](N(C)C)[C@H](C)O4)[C@H]2OC5)c2nc-3cs2)n1)C(N)=O | 0.03 (≈ 0.018 µM) | 0.25 (≈ 0.15 µM) | 1 (≈ 0.601 µM) | > 10
– | C=C(NC(=O)c1csc(-c2nc3c(cc2O)-c2nc(cs2)C(=O)N[C@@H]([C@@H](C)O)C(=O)N/C(=C(\C)OC)c2nc(cs2)C(=O)N[C@@H]2c4nc(cs4)C(=O)N[C@@H](COC(=O)c4c5c6c(cccc6n4OCCCN)COC(=O)[C@@H](O[C@H]4C[C@](C)(O)[C@H](N(C)C)[C@H](C)O4)[C@H]2OC5)c2nc-3cs2)n1)C(N)=O | 0.06 (≈ 0.0401 µM) | 1 (≈ 0.669 µM) | 0.25 (≈ 0.167 µM) | > 10
– | C=C(NC(=O)c1csc(-c2nc3c(cc2O)-c2nc(cs2)C(=O)N[C@@H]([C@@H](C)O)C(=O)N/C(=C(\C)OC)c2nc(cs2)C(=O)N[C@@H]2c4nc(cs4)C(=O)N[C@@H](COC(=O)c4c5c6c(cccc6n4OCCOCCOCCOCCOCCOCO)COC(=O)[C@@H](O[C@H]4C[C@](C)(O)[C@H](N(C)C)[C@H](C)O4)[C@H]2OC5)c2nc-3cs2)n1)C(N)=O | 0.007 (≈ 0.00415 µM) | 0.5 (≈ 0.296 µM) | 0.125 (≈ 0.0741 µM) | > 10
> 2000 | C=C(NC(=O)c1csc(-c2nc3c(cc2OCCCS(=O)(=O)O)-c2nc(cs2)C(=O)N[C@@H]([C@@H](C)O)C(=O)N/C(=C(\C)OC)c2nc(cs2)C(=O)N[C@@H]2c4nc(cs4)C(=O)N[C@@H](COC(=O)c4c5c6c(cccc6n4OCCCS(=O)(=O)O)COC(=O)[C@@H](O[C@H]4C[C@](C)(O)[C@H](N(C)C)[C@H](C)O4)[C@H]2OC5)c2nc-3cs2)n1)C(N)=O | 0.5 (≈ 0.297 µM) | 128 (≈ 76.1 µM) | > 128 | –
– | C=C(NC(=O)c1csc(-c2nc3c(cc2O)-c2nc(cs2)C(=O)N[C@@H]([C@@H](C)O)C(=O)N/C(=C(\C)OC)c2nc(cs2)C(=O)N[C@@H]2c4nc(cs4)C(=O)N[C@@H](COC(=O)c4c5c6c(cccc6n4OC)COC(=O)[C@@H](O[C@H]4C[C@](C)(O)[C@H](N(C)C)[C@H](C)O4)[C@H]2OC5)c2nc-3cs2)n1)C(N)=O | 0.003 (≈ 0.00207 µM) | 0.125 (≈ 0.0861 µM) | 0.03 (≈ 0.0207 µM) | < 0.62
– | C=C(NC(=O)c1csc(-c2nc3c(cc2O)-c2nc(cs2)C(=O)N[C@@H]([C@@H](C)O)C(=O)N/C(=C(\C)OC)c2nc(cs2)C(=O)N[C@@H]2c4nc(cs4)C(=O)N[C@@H](COC(=O)c4c5c6c(cccc6n4OCCCN4CCN(C)CC4)COC(=O)[C@@H](O[C@H]4C[C@](C)(O)[C@H](N(C)C)[C@H](C)O4)[C@H]2OC5)c2nc-3cs2)n1)C(N)=O | 0.03 (≈ 0.019 µM) | 1 (≈ 0.634 µM) | 1 (≈ 0.634 µM) | 8.7
– | C=C(NC(=O)c1csc(-c2nc3c(cc2OCC(=O)N(C)C)-c2nc(cs2)C(=O)N[C@@H]([C@@H](C)O)C(=O)N/C(=C(\C)OC)c2nc(cs2)C(=O)N[C@@H]2c4nc(cs4)C(=O)N[C@@H](COC(=O)c4c5c6c(cccc6n4OCC(=O)N(C)C)COC(=O)[C@@H](O[C@H]4C[C@](C)(O)[C@H](N(C)C)[C@H](C)O4)[C@H]2OC5)c2nc-3cs2)n1)C(N)=O | 0.125 (≈ 0.0777 µM) | 4 (≈ 2.49 µM) | 8 (≈ 4.98 µM) | > 10
– | C=C(NC(=O)c1csc(-c2nc3c(cc2OC)-c2nc(cs2)C(=O)N[C@@H]([C@@H](C)O)C(=O)N/C(=C(\C)OC)c2nc(cs2)C(=O)N[C@@H]2c4nc(cs4)C(=O)N[C@@H](COC(=O)c4c5c6c(cccc6n4O)COC(=O)[C@@H](O[C@H]4C[C@](C)(O)[C@H](N(C)C)[C@H](C)O4)[C@H]2OC5)c2nc-3cs2)n1)C(N)=O | 0.003 (≈ 0.00207 µM) | 0.015 (≈ 0.0103 µM) | 0.015 (≈ 0.0103 µM) | > 10
– | C=C(NC(=O)c1csc(-c2nc3c(cc2O)-c2nc(cs2)C(=O)N[C@@H]([C@@H](C)O)C(=O)N/C(=C(\C)OC)c2nc(cs2)C(=O)N[C@@H]2c4nc(cs4)C(=O)N[C@@H](COC(=O)c4c5c6c(cccc6n4OCCn4ccnc4)COC(=O)[C@@H](O[C@H]4C[C@](C)(O)[C@H](N(C)C)[C@H](C)O4)[C@H]2OC5)c2nc-3cs2)n1)C(N)=O | 0.015 (≈ 0.00979 µM) | 1 (≈ 0.653 µM) | 0.5 (≈ 0.326 µM) | > 10

Reference: ChEMBL document CHEMBL1146687, “Novel semi-synthetic nocathiacin antibiotics: synthesis and antibacterial activity of bis- and mono-O-alkylated derivatives” (Bioorg Med Chem Lett, 2004)
